Measurements from PubChem BioAssay AID1963866 (Molecular Pharmacology Branch, DTP, NCI, 2024).

Test system: PDC KRAS tumor spheroids with HUVEC/MSC, viability
Experiment: Anticancer human tumor 349418-098-R-PDC patient-derived lung adenocarcinoma cell line growth inhibition [KRAS2]
Conditions: for IC50: curve of first compound; for viability, T/C: stronger effect = lower value
Procedure, shortened: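 KRAS-mutant tumor cells were grown as spheroids with HUVEC endothelial cells and human MSCs as stroma. Targeted agents were tested alone and with KRAS pathway inhibitors. Doses started at or near clinical Cmax, or 10 microM, descending half-log.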

[1] = second compound 0.1 µM, first compound 0.0316 µM
[2] = second compound 0.1 µM, first compound 0.1 µM
[3] = second compound 0.1 µM, first compound 0.316 µM
[4] = second compound 0.1 µM, first compound 1 µM
[5] = second compound 0.1 µM, first compound 3.16 µM
[6] = second compound 0.1 µM, first compound 10 µM
[7] = second compound 0.316 µM, first compound 0.0316 µM
[8] = second compound 0.316 µM, first compound 0.1 µM
[9] = second compound 0.316 µM, first compound 0.316 µM
[10] = second compound 0.316 µM, first compound 1 µM
[11] = second compound 0.316 µM, first compound 3.16 µM
[12] = second compound 0.316 µM, first compound 10 µM
[13] = second compound 1 µM, first compound 0.0316 µM
[14] = second compound 1 µM, first compound 0.1 µM
[15] = second compound 1 µM, first compound 0.316 µM
[16] = second compound 1 µM, first compound 1 µM
[17] = second compound 1 µM, first compound 3.16 µM
[18] = second compound 1 µM, first compound 10 µM
[19] = second compound 3.16 µM, first compound 0.0316 µM
[20] = second compound 3.16 µM, first compound 0.1 µM
[21] = second compound 3.16 µM, first compound 0.316 µM
[22] = second compound 3.16 µM, first compound 1 µM
[23] = second compound 3.16 µM, first compound 3.16 µM
[24] = second compound 3.16 µM, first compound 10 µM
[25] = second compound 0.0316 µM, first compound 0.0316 µM
[26] = second compound 0.0316 µM, first compound 0.1 µM
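Further: spheroids exposed to compounds for seven days before readout.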

With `Cn1nccc1Nc1nccc(-c2cc3c(s2)C(C)(C)N(CCN2CCOCC2)C3=O)n1` + CNCc1ccccc1-c1csc(C(C)Nc2nc(C)nc3cc(OC)c(OC)cc23)c1 the IC50 (second compound 0.1 µM) was 0.0378 µM, the IC50 (second compound 0.316 µM) was under 0.0316 µM and the IC50 (second compound 1 µM) was under 0.0316 µM. The IC50 (second compound 3.16 µM) was under 0.0316 µM, the IC50 (second compound 10 µM) was under 0.0316 µM and the viability, T/C [1] was 54.8%. It also gave a viability, T/C [2] of 25.9%, a viability, T/C [3] of 12.2% and a viability, T/C [4] of 8.63%. For the same compound, the viability, T/C [5] was 5.95%, the viability, T/C [6] was 4.72% and the viability, T/C [7] was 48.3%. For the same compound, the viability, T/C [8] was 21.5%, the viability, T/C [9] was 10.3% and the viability, T/C [10] was 6.91%. The viability, T/C [11] was 6.22%, the viability, T/C [12] was 3.95% and the viability, T/C [13] was 28.4%. The viability, T/C [14] was 8.49%, the viability, T/C [15] was 3.82% and the viability, T/C [16] was 2.34%. For the same compound, the viability, T/C [17] was 1.92%, the viability, T/C [18] was 1.22% and the viability, T/C [19] was 0.04%. The viability, T/C [20] was 0.3%, the viability, T/C [21] was 0.06% and the viability, T/C [22] was 0.07%. For the same compound, the viability, T/C [23] was 0.05%, the viability, T/C [24] was 0.1% and the viability, T/C (second compound 10 µM, first compound 0.0316 µM) was 0.19%. For the same compound, the viability, T/C (second compound 10 µM, first compound 0.1 µM) was 0.25%, the viability, T/C (second compound 10 µM, first compound 0.316 µM) was 0.07% and the viability, T/C (second compound 10 µM, first compound 1 µM) was 0.08%. It also gave a viability, T/C (second compound 10 µM, first compound 3.16 µM) of 0.23% and a viability, T/C (second compound 10 µM, first compound 10 µM) of 0.13%.

Compound `Cn1ncnc1[C@H]1c2n[nH]c(=O)c3cc(F)cc(c23)N[C@@H]1c1ccc(F)cc1` + C=CC(=O)N1CCN(c2nc(OCC3CCCN3C)nc3c2CCN(c2cccc4cccc(C)c24)C3)CC1CC#N has an IC50 (second compound 0.0316 µM) of over 0.1 µM, an IC50 (second compound 0.1 µM) of over 0.1 µM and an IC50 (second compound 0.316 µM) of over 0.1 µM. The IC50 (second compound 1 µM) was over 0.1 µM, the IC50 (second compound 3.16 µM) was under 0.000316 µM and the viability, T/C (second compound 0.0316 µM, first compound 0.000316 µM) was 98.3%. The viability, T/C (second compound 0.0316 µM, first compound 0.001 µM) was 93.3%, the viability, T/C (second compound 0.0316 µM, first compound 0.00316 µM) was 84.3% and the viability, T/C (second compound 0.0316 µM, first compound 0.01 µM) was 85.5%. The viability, T/C [25] was 86.8%, the viability, T/C [26] was 74.9% and the viability, T/C (second compound 0.1 µM, first compound 0.000316 µM) was 93.7%. For the same compound, the viability, T/C (second compound 0.1 µM, first compound 0.001 µM) was 96.9%, the viability, T/C (second compound 0.1 µM, first compound 0.00316 µM) was 83.6% and the viability, T/C (second compound 0.1 µM, first compound 0.01 µM) was 80.3%. For the same compound, the viability, T/C [1] was 74.3%, the viability, T/C [2] was 75.9% and the viability, T/C (second compound 0.316 µM, first compound 0.000316 µM) was 94.8%. For the same compound, the viability, T/C (second compound 0.316 µM, first compound 0.001 µM) was 97.9%, the viability, T/C (second compound 0.316 µM, first compound 0.00316 µM) was 85.7% and the viability, T/C (second compound 0.316 µM, first compound 0.01 µM) was 85.7%. The viability, T/C [7] was 79.2%, the viability, T/C [8] was 68% and the viability, T/C (second compound 1 µM, first compound 0.000316 µM) was 84.4%. The viability, T/C (second compound 1 µM, first compound 0.001 µM) was 82.8%, the viability, T/C (second compound 1 µM, first compound 0.00316 µM) was 68.6% and the viability, T/C (second compound 1 µM, first compound 0.01 µM) was 75.2%. The viability, T/C [13] was 70.2%, the viability, T/C [14] was 58.8% and the viability, T/C (second compound 3.16 µM, first compound 0.000316 µM) was 0.16%. It also gave a viability, T/C (second compound 3.16 µM, first compound 0.001 µM) of 0.14%, a viability, T/C (second compound 3.16 µM, first compound 0.00316 µM) of 2.18% and a viability, T/C (second compound 3.16 µM, first compound 0.01 µM) of 1.01%. It also gave a viability, T/C [19] of 0.72% and a viability, T/C [20] of 0.18%.

`Cn1nccc1Nc1nccc(-c2cc3c(s2)C(C)(C)N(CCN2CCOCC2)C3=O)n1` + C=CC(=O)N1CCN(c2nc(OCC3CCCN3C)nc3c2CCN(c2cccc4cccc(C)c24)C3)CC1CC#N showed an IC50 (second compound 0.0316 µM) of 0.0447 µM, an IC50 (second compound 0.1 µM) of 0.0597 µM and an IC50 (second compound 0.316 µM) of 0.0493 µM. It also gave an IC50 (second compound 1 µM) of under 0.0316 µM, an IC50 (second compound 3.16 µM) of under 0.0316 µM and a viability, T/C [25] of 57.1%. The viability, T/C [26] was 33.1%, the viability, T/C (second compound 0.0316 µM, first compound 0.316 µM) was 20.7% and the viability, T/C (second compound 0.0316 µM, first compound 1 µM) was 8.51%. For the same compound, the viability, T/C (second compound 0.0316 µM, first compound 3.16 µM) was 7.52%, the viability, T/C (second compound 0.0316 µM, first compound 10 µM) was 5.99% and the viability, T/C [1] was 70.2%. It also gave a viability, T/C [2] of 31.8%, a viability, T/C [3] of 21.5% and a viability, T/C [4] of 8.37%. The viability, T/C [5] was 7.54%, the viability, T/C [6] was 5.51% and the viability, T/C [7] was 62.2%. For the same compound, the viability, T/C [8] was 31%, the viability, T/C [9] was 14.8% and the viability, T/C [10] was 9.55%. The viability, T/C [11] was 7.33%, the viability, T/C [12] was 4.36% and the viability, T/C [13] was 41.5%. For the same compound, the viability, T/C [14] was 32.5%, the viability, T/C [15] was 13.6% and the viability, T/C [16] was 7.03%. The viability, T/C [17] was 4.51%, the viability, T/C [18] was 3.02% and the viability, T/C [19] was 0.13%. The viability, T/C [20] was 0.09%, the viability, T/C [21] was 0.07% and the viability, T/C [22] was 0.07%. It also gave a viability, T/C [23] of 0.07% and a viability, T/C [24] of 0.17%.
